# Tested on: S180 tumor cells (mouse sarcoma)
# Conditions: mice sarcoma S180, stomach lavage, 0.3 ml/10 g body weight/day×10
# Description: The mice inoculated by S180 tumor cells (mouse sarcoma) were used as model animals.
# In the meantime, non-inoculated mice were feed and used as the native control group.
smiles,measurement,value
O=P1(N(CCCl)CCCl)NCCCO1 (centres unmarked) [cyclophosphamide],Mice body (GPT),39.2 ± 5.69
same,Weight of Tumor (g) (X ± SD),0.614 ± 0.268 g

# — US9901602B2, “Ejaculum of animals as medicinal material and uses thereof in medicaments for treatment of diseases such as tumors, depression, etc” (Hui CHENG, priority 2008, dated 2018)
